Laboratory results from patent publication US12492193B2, “Pyrazole derivatives for the treatment of cystic fibrosis” (Fondazione Istituto Italiano Di Tecnologia, priority 2017, dated 2025).

Molecular target: T1, mutant CFTR (Homo sapiens, UniProt P13569, DEL508-508)
T1 construct: expressed in transfected cells
Assay: Fluorescence (HS-YFP) assay for CFTR activity, corrector assay
Format: cell-based
Settings: CFBE41o- and FRT cells with stable expression of mutant CFTR, 24 h compound treatment
Outline: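 CFBE41o- or FRT cells stably expressing mutant CFTR and HS-YFP were exposed to compounds for 24 h (corrector mode), then stimulated 30 min at 37° C with forskolin (20 μM) plus genistein (50 μM). YFP quenching after 100 mM iodide injection; initial slope from exponential fit of final 10 s; EC50 reported.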

T1 sequence (P13569 with tags, fused parts or gaps DEL508-508): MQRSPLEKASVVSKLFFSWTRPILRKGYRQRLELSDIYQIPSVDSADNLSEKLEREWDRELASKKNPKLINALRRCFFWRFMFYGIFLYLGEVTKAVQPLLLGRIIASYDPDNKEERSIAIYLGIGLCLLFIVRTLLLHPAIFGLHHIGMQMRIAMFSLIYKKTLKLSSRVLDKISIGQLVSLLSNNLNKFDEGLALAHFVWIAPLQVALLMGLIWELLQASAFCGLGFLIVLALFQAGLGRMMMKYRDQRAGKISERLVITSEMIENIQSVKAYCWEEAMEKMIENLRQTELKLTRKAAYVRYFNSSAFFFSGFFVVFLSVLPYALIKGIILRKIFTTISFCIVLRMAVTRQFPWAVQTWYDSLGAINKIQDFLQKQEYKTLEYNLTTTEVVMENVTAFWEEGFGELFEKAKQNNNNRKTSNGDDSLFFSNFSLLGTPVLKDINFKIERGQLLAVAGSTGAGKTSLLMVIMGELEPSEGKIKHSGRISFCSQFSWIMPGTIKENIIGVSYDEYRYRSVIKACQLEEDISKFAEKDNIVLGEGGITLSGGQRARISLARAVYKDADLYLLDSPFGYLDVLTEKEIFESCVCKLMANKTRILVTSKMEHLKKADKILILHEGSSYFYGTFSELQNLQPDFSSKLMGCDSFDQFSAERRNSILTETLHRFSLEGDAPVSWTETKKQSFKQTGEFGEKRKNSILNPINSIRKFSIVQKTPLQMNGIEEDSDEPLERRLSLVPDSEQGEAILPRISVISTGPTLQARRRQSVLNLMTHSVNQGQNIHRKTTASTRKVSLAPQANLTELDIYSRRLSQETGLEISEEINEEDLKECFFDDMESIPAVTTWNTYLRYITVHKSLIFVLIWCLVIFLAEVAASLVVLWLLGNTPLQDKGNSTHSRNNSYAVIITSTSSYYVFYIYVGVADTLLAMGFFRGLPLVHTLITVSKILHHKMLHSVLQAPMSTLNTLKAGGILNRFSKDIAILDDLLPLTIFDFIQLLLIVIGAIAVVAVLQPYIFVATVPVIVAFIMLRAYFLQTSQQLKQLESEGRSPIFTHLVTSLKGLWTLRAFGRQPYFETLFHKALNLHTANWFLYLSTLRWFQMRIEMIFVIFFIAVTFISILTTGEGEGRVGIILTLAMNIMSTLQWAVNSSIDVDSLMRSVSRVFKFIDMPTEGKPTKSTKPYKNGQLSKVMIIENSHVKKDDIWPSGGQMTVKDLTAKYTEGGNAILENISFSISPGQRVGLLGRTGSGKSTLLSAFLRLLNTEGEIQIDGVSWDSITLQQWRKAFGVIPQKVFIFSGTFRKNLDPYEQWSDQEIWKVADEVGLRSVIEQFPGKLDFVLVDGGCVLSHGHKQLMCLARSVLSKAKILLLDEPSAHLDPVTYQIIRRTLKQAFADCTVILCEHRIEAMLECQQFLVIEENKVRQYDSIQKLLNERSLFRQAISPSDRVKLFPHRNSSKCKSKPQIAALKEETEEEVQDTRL

| Structure (SMILES) | EC50 [nM] |
| --- | --- |
| Cc1nc2cc(F)c(N(C)C(=O)c3cccc(-n4nc(C(F)(F)F)c(Cl)c4C)c3)cc2o1 [compound 154, 3-[4-Chloro-5-methyl-3-(trifluoromethyl)pyrazol-1-yl]-N-(5-fluoro-2-methyl-1,3-benzoxazol-6-yl)-N-methyl-benzamide] | < 1000 |
| Cc1nn(-c2cccc(C(=O)N(c3ccc4c(c3)OCCO4)C(C)C)c2)c(C)c1Cl [compound 003, 3-(4-Chloro-3,5-dimethyl-pyrazol-1-yl)-N-(2,3-dihydro-1,4-benzodioxin-6-yl)-N-isopropyl-benzamide] | > 2000 |
| Cc1cc(C(F)(F)F)nn1-c1cccc(S(=O)(=O)N(C)c2ccc3c(c2)OCO3)c1 [compound 204, N-(1,3-Benzodioxol-5-yl)-N-methyl-3-[5-methyl-3-(trifluoromethyl)pyrazol-1-yl]benzenesulfonamide] | 1000 to 2000 |
| Cc1nn(-c2cccc(C(=O)N(C)c3ccc4c(c3)OCO4)c2)c(C)c1C(=O)O [compound 048, 1-[3-[1,3-Benzodioxol-5-yl(methyl)carbamoyl]phenyl]-3,5-dimethyl-pyrazole-4-carboxylic acid] | > 2000 |
| CN(C(=O)c1cccc(-n2nc(C(F)(F)F)cc2OCC2(C(=O)O)CC2)c1)c1ccc2c(c1)OC(F)(F)O2 [compound 265, 1-[[2-[3-[(2,2-Difluoro-1,3-benzodioxol-5-yl)-methyl-carbamoyl]phenyl]-5-(trifluoromethyl)pyrazol-3-yl]oxymethyl]cyclopropanecarboxylic acid] | > 2000 |
| Cc1nn(-c2cccc(C(=O)N(C)c3ccc4c(c3)OCO4)c2)c(C)c1Cl [compound 015, N-(1,3-Benzodioxol-5-yl)-3-(4-chloro-3,5-dimethyl-pyrazol-1-yl)-N-methyl-benzamide] | < 1000 |
| [2H]C([2H])([2H])N(C(=O)c1cccc(-n2nc(C(F)(F)F)c(Cl)c2COc2ccc(C(=O)O)cc2)c1)c1ccc2c(c1)OC(F)(F)O2 [compound 182, 4-[[4-Chloro-2-[3-[(2,2-difluoro-1,3-benzodioxol-5-yl)-(trideuteriomethyl)carbamoyl]phenyl]-5-(trifluoromethyl)pyrazol-3-yl]methoxy]benzoic acid] | < 1000 |
| Cc1nn(-c2cc(C(=O)N(C)c3ccc4c(c3)OCO4)ccn2)c(C(F)(F)F)c1Cl [compound 170, N-(1,3-Benzodioxol-5-yl)-2-[4-chloro-3-methyl-5-(trifluoromethyl)pyrazol-1-yl]-N-methyl-pyridine-4-carboxamide] | > 2000 |
| CC(C)Oc1cc(C(F)(F)F)nn1-c1cccc(C(=O)N(C)c2ccc3c(c2)OCO3)c1 [compound 131, N-(1,3-benzodioxol-5-yl)-3-[5-isopropoxy-3-(trifluoromethyl)pyrazol-1-yl]-N-methyl-benzamide] | < 1000 |
| CCOC(=O)c1ccc(OCc2c(Cl)c(C(F)(F)F)nn2-c2cccc(C(=O)N(C)c3ccc4c(c3)OCO4)c2)cc1 [compound 150, Ethyl 4-[[2-[3-[1,3-benzodioxol-5-yl(methyl)carbamoyl]phenyl]-4-chloro-5-(trifluoromethyl)pyrazol-3-yl]methoxy]benzoate] | < 1000 |
| Cc1nn(-c2cccc(C(=O)N(c3ccc4c(c3)OCCO4)C3CC3)c2)c(C)c1Cl [compound 030, 3-(4-Chloro-3,5-dimethyl-pyrazol-1-yl)-N-cyclopropyl-N-(2,3-dihydro-1,4-benzodioxin-6-yl)benzamide] | > 2000 |
| Cc1nc2ccc(NC(=O)c3cccc(-n4nc(C(F)(F)F)c(Cl)c4COc4ccc(C(=O)OC(C)(C)C)cc4)c3)cn2n1 [compound 173, tert-Butyl 4-[[4-chloro-2-[3-[(2-methyl-[1,2,4]triazolo[1,5-a]pyridin-6-yl)carbamoyl]phenyl]-5-(trifluoromethyl)pyrazol-3-yl]methoxy]benzoate] | > 2000 |
| CO[C@H](c1ccccc1)c1c(Cl)c(C)nn1-c1cccc(C(=O)N(C)c2ccc3c(c2)OCO3)c1 (racemic) [compound 117, N-(1,3-Benzodioxol-5-yl)-3-[4-chloro-5-[(rac)-methoxy (phenyl)methyl]-3-methyl-pyrazol-1-yl]-N-methyl-benzamide] | < 1000 |
| Cc1ccc(-n2nc(C)c(Cl)c2C)cc1C(=O)N(C)c1ccc2c(c1)OCCO2 [compound 031, 5-(4-chloro-3,5-dimethyl-pyrazol-1-yl)-N-(2,3-dihydro-1,4-benzodioxin-6-yl)-N, 2-dimethyl-benzamide] | > 2000 |
| CCc1nn(-c2cccc(C(=O)N(C)c3ccc4c(c3)OCO4)c2)c(CC)c1Cl [compound 092, N-(1,3-Benzodioxol-5-yl)-3-(4-chloro-3,5-diethyl-pyrazol-1-yl)-N-methyl-benzamide] | < 1000 |
| Cc1nc2cc(F)c(N(C)C(=O)c3cccc(-n4nc(C(F)(F)F)c(Cl)c4OCc4ccc(C(=O)OC(C)(C)C)cc4)c3)cc2o1 [compound 202, Tert-butyl 4-[[4-chloro-2-[3-[(5-fluoro-2-methyl-1,3-benzoxazol-6-yl)-methyl-carbamoyl]phenyl]-5-(trifluoromethyl)pyrazol-3-yl]oxymethyl]benzoate] | < 1000 |
| CN(C(=O)c1cccc(-n2nc(C(F)(F)F)cc2-c2ccccc2C(F)(F)F)c1)c1ccc2c(c1)OCO2 [compound 176, N-(1,3-Benzodioxol-5-yl)-N-methyl-3-[3-(trifluoromethyl)-5-[2-(trifluoromethyl)phenyl]pyrazol-1-yl]benzamide] | < 1000 |

| Structure (SMILES) | EC50 [nM] |
| --- | --- |
| Cc1c(Cl)c(C(F)(F)F)nn1-c1cccc(C(=O)Nc2cc3c(cc2CO)OCO3)c1 [Int-167, 3-[4-chloro-5-methyl-3-(trifluoromethyl)pyrazol-1-yl]-N-[6-(hydroxymethyl)-1,3-benzodioxol-5-yl]benzamide] | < 1000 |
| CN(C(=O)c1cccc(-n2nc(C(F)(F)F)cc2OCC23CC(C(=O)O)(C2)C3)c1)c1ccc2c(c1)OC(F)(F)O2 [compound 255, 3-[[2-[3-[(2,2-Difluoro-1,3-benzodioxol-5-yl)-methyl-carbamoyl]phenyl]-5-(trifluoromethyl)pyrazol-3-yl]oxymethyl]bicyclo[1.1.1]pentane-1-carboxylic acid] | < 1000 |
| CN(C(=O)c1cccc(-n2nc(C(F)(F)F)c(C#N)c2Oc2ccc(C(=O)OC(C)(C)C)cc2)c1)c1ccc2c(c1)OCO2 [compound 200, Tert-butyl 4-[2-[3-[1,3-benzodioxol-5-yl (methyl)carbamoyl]phenyl]-4-cyano-5-(trifluoromethyl)pyrazol-3-yl]oxybenzoate] | < 1000 |
| Cc1nn(-c2cccc(C(=O)N(C)c3ccc4c(c3)OCO4)c2)c(COc2cccc(C(=O)O)c2)c1Cl [compound 143, 3-[[2-[3-[1,3-Benzodioxol-5-yl(methyl)carbamoyl]phenyl]-4-chloro-5-methyl-pyrazol-3-yl]methoxy]benzoic acid] | 1000 to 2000 |
| CC(=O)c1c(Cl)c(C)nn1-c1cccc(C(=O)N(C)c2ccc3c(c2)OCO3)c1 [compound 116, 3-(5-Acetyl-4-chloro-3-methyl-pyrazol-1-yl)-N-(1,3-benzodioxol-5-yl)-N-methyl-benzamide] | < 1000 |
| Cc1nn(-c2cccc(C(=O)N(C)c3ccc4c(c3)OC(F)(F)C(F)(F)O4)c2)c(C)c1Cl [compound 008, 3-(4-Chloro-3,5-dimethyl-pyrazol-1-yl)-N-methyl-N-(2,2,3,3-tetrafluoro-1,4-benzodioxin-6-yl)benzamide] | > 2000 |
| CCOC(=O)c1cccc(OCc2c(Cl)c(C)nn2-c2cccc(C(=O)N(C)c3ccc4c(c3)OCO4)c2)c1 [compound 140, Ethyl 3-[[2-[3-[1,3-benzodioxol-5-yl(methyl)carbamoyl]phenyl]-4-chloro-5-methyl-pyrazol-3-yl]methoxy]benzoate] | < 1000 |
| Cc1c(Cl)c(C(F)(F)F)nn1-c1cccc(C(=O)Nc2ccc3c(c2CO)OCO3)c1 [compound 206, 3-[4-chloro-5-methyl-3-(trifluoromethyl)pyrazol-1-yl]-N-[4-(hydroxymethyl)-1,3-benzodioxol-5-yl]benzamide] | > 2000 |
| Cc1nn(-c2cccc(C(=O)N(C)c3ccc4c(c3)OCO4)c2)c(C)c1C(N)=O [compound 056, 1-[3-[1,3-Benzodioxol-5-yl(methyl)carbamoyl]phenyl]-3,5-dimethyl-pyrazole-4-carboxamide] | > 2000 |
| CN(C(=O)c1cccc(-n2nc(-c3cccnc3)cc2C(F)(F)F)c1)c1ccc2c(c1)OCO2 [compound 194, N-(1,3-Benzodioxol-5-yl)-N-methyl-3-[3-(3-pyridyl)-5-(trifluoromethyl)pyrazol-1-yl]benzamide] | 1000 to 2000 |
| Cc1nn(-c2cccc(C(=O)Nc3ccc4c(c3)CCO4)c2)c(C)c1Cl [Int-052] | > 2000 |
| Cc1nn(-c2cccc(C(=O)N(C)c3cc4c(cc3Cl)OC(F)(F)O4)c2)c(C)c1Cl [compound 049, N-(6-Chloro-2,2-difluoro-1,3-benzodioxol-5-yl)-3-(4-chloro-3,5-dimethyl-pyrazol-1-yl)-N-methyl-benzamide] | < 1000 |
| Cc1nn(-c2cccc(C(=O)N(C)c3ccc4oc(C(C)C)nc4c3)c2)c(C)c1Cl [compound 062, 3-(4-Chloro-3,5-dimethyl-pyrazol-1-yl)-N-(2-isopropyl-1,3-benzoxazol-5-yl)-N-methyl-benzamide] | > 2000 |
| [2H]C([2H])([2H])N(C(=O)c1cccc(-n2nc(C)c(Cl)c2C)c1)c1ccc2c(c1)OC(F)(F)O2 [compound 039, 3-(4-Chloro-3,5-dimethyl-pyrazol-1-yl)-N-(2,2-difluoro-1,3-benzodioxol-5-yl)-N-(trideuteriomethyl) benzamide] | 1000 to 2000 |
| CCOc1cc(C(F)(F)F)nn1-c1cccc(C(=O)N(C)c2ccc3c(c2)OCO3)c1 [compound 158, N-(1,3-benzodioxol-5-yl)-3-[5-ethoxy-3-(trifluoromethyl)pyrazol-1-yl]-N-methyl-benzamide] | < 1000 |
| Cc1nn(-c2cccc(C(=O)N(C)c3ccc4ocnc4c3)c2)c(C)c1Cl [compound 029, N-(1,3-Benzoxazol-5-yl)-3-(4-chloro-3,5-dimethyl-pyrazol-1-yl)-N-methyl-benzamide] | > 2000 |
